Results on 4 molecules are retold here after PMC6597546, “Identification of a potent benzoxaborole drug candidate for treating cryptosporidiosis” (Nature Communications, 2019).

Broadly, the EC50 is the concentration that produces a half-maximal response. The inhibition is how much of the control response was suppressed.

Several values for one entry are separate records, joined by “and”; a condition that tells them apart may be missing. Identical values can stand only once. Like-named read-outs stand apart in the source and are kept apart here.

Experiment [1] has as its system C. parvum (Bunch Grass Farms Iowa isolate). The experiment can be described thus: Time-kill curve assay in HCT-8 cells. It counts as cell-based, Cryptosporidium parvum. The conditions noted are these: for time-kill curve result: compound added ~24 h after infection of HCT-8. As for the experimental part:
The invasion assay, DNA replication assay, asexual to sexual stage conversion, and time-kill curve assays were performed using fluorescence microscopy to enumerate parasites and host cell nuclei. Staining protocols are individually described for each assay. Unless noted otherwise, the details of image acquisition were as follows. An inverted Nikon Eclipse Ti2000 microscope with an automated stage and Perfect Focus was used with NIS-Elements Advanced Research software (Nikon, USA, version 4.30.01) to image the wells. The microscope was programmed to focus on the center of each well and then take a 3 × 3 composite image per well using a 20 × (0.45 NA) objective. Images were exported as .tiff files and parasites and host nuclei counted using a custom macro on ImageJ (National Institutes of Health, version 1.52a). Data were analyzed using Microsoft Excel and GraphPad Prism (version 6.01). […] C. parvum Iowa isolate oocysts (Bunch Grass Farms, Deary, ID) were treated to induce excystation and added to >90% confluent HCT-8 cells in 384-well plates. […] The monolayers were then washed, fixed, and stained with Vicia villosa lectin and DAPI at the indicated time points, and imaged as for the C. parvum growth assay. Separate 384-well plates were used for each time point. Parasite numbers were normalized to host cell nucleus numbers and expressed as the percentage of host cells infected. Drug-induced parasite decay was isolated from the reduction in parasites over time that occurs spontaneously in the HCT-8 culture system by expressing the number of parasites as the percentage of the number of parasites present at each time point under control (DMSO-treated) conditions.

In another experiment the test system is C. parvum. The experiment can be described thus: C. parvum growth inhibition in HCT-8 cells (follow-up assay, Vicia villosa lectin staining). It counts as cell-based, Cryptosporidium parvum. The conditions noted are these: Iowa (BGF, 10%FBS), HCT-8, single replicates, unit inferred, read-out: In vitro efficacy (Fig 2b, EC50). As for the experimental part:
Follow-up assays were performed at the University of Vermont (UVM) and Calibr at Scripps Research by infection of the colonic adenocarcinoma cell line HCT-8 (ATCC CCL-244) and staining with the Vicia villosa lectin and DAPI[17],[32]. The FBS concentrations and parasites used for these assays were as indicated; parasite isolates and sources included C. parvum Iowa isolate oocysts purchased from Bunch Grass Farm (Deary, ID), C. parvum Iowa isolate oocysts purchased from the Sterling Laboratory (University of Arizona, Tucson, AZ), wild type C. parvum oocysts provided by Dr. Jenni Zambriski (Virginia Tech, Blacksburg, VA), and the C. hominis TU502 isolate purchased from Dr. Saul Tzipori (Tufts University Cummings School of Veterinary Medicine, North Grafton, MA). […] Amphotericin B (Sigma, catalog# A2942) was added to the culture media at 0.1 to 0.5 µg per mL for the DMC1 dose response assays.

Experiment [2] deals with C. parvum (Bunch Grass Farms Iowa isolate). The experiment in a line: NOD scid gamma (NSG) mouse model of established C. parvum infection. The class given is in vivo, NOD scid gamma mice. The following applies: for parasite fecal shedding (qPCR), individual mice: 2,000 mg/kg. As for the experimental part:
NOD scid gamma mice (NOD.Cg-Prkdcscid Il2rgtm1Wjl/SzJ)[55] (NSG) were used to model chronic Cryptosporidium infection. All NSG mouse studies were performed in compliance with animal care guidelines and with approval by the University of Vermont Institutional Animal Care and Use Committee. NSG mice with normal flora were purchased from The Jackson Laboratory (Bar Harbor, ME) and were housed for at least a week for acclimatization. […] Fecal parasite shedding was measured using a quantitative PCR (qPCR) assay, and the primers named above as Cp18s forward and Cp18s reverse.
(Real-time PCR tracks product formation cycle by cycle.)

The test system of experiment [3] is C. parvum DMC1 positive parasites. More on the design: method as in PMID 31015448. The conditions noted are these: cited from earlier work.
Experiment [4] deals with C. parvum invasion of HCT-8 host cells. The experiment can be described thus: HCT-8 host cell invasion assay. The class given is cell-based, Cryptosporidium parvum. The conditions noted are these: 11.3 µM, HCT-8 invasion 3 h. As for the experimental part: The invasion assay, DNA replication assay, asexual to sexual stage conversion, and time-kill curve assays were performed using fluorescence microscopy to enumerate parasites and host cell nuclei. Staining protocols are individually described for each assay. Unless noted otherwise, the details of image acquisition were as follows. An inverted Nikon Eclipse Ti2000 microscope with an automated stage and Perfect Focus was used with NIS-Elements Advanced Research software (Nikon, USA, version 4.30.01) to image the wells. The microscope was programmed to focus on the center of each well and then take a 3 × 3 composite image per well using a 20 × (0.45 NA) objective. Images were exported as .tiff files and parasites and host nuclei counted using a custom macro on ImageJ (National Institutes of Health, version 1.52a). Data were analyzed using Microsoft Excel and GraphPad Prism (version 6.01).
Host cell invasion was assayed by allowing C. parvum to invade host cell monolayers in the presence of compound, and enumerating parasites and host cells after just 3 h (i.e., before completion of a parasite division cycle)[38]. HCT-8 cells were grown in RPMI media supplemented with 120 U per mL penicillin and 120 μg per mL streptomycin and 10% heat inactivated fetal bovine serum (complete media) and C. parvum Iowa isolate oocysts from Bunch Grass Farms (Deary, ID) were used for infection. When cells reached a confluence of >99%, media was removed and replaced with 25 µL per well of fresh media containing twice the indicated concentrations of compounds and incubated for 1 h at 37 °C in a humidified CO2 incubator. In the meantime, oocysts were induced for excystation by first treating with 10 mM hydrochloric acid (diluted with distilled water) for 10 min at 37 °C followed by 2 mM sodium taurocholate (in phosphate buffered saline (PBS) with calcium and magnesium) for 10 min at 16 °C. Before and after each treatment, oocysts were spun down at 14,000 × g for 4.5 min and supernatant was removed. […]

Regarding `CC(=O)Oc1ccccc1C(=O)Nc1ncc([N+](=O)[O-])s1` [Nitazoxanide, nitazoxanide], the “% C. parvum relative to DMSO control” value in experiment [1] (EC90, 0 h exposure) was 92.14% and 109.39% and 105.07% and 102.65%; in experiment [1] (EC90, 6 h exposure) it was 89.44% and 63.73% and 107.77% and 101.99%; in experiment [1] (EC90, 12 h exposure) it was 64.07% and 50.47% and 61.96% and 52.34%; in experiment [1] (EC90, 24 h exposure) it was 33.99% and 23.15% and 39.39% and 30.38%; in experiment [1] (EC90, 48 h exposure), 66.11% and 87.75% and 96.10% and 82.36%; in experiment [1] (EC90, 72 h exposure), 59.95% and 89.51% and 62.55% and 99.92%. Moreover, the time-kill curve result in experiment [1] is reported as “likely parasitistatic or very slow acting”; in experiment [1] (listed as NTZ), “No exponential decay curve can be fit”. Besides, the “% Parasite / host nuclei” value in experiment [1] (compound at 3 x EC90, 0 h exposure, listed as Nitazonxanide) is 25.13% and 23.57% and 25.93% and 26.94%; in experiment [1] (compound at 3 x EC90, 6 h exposure, listed as Nitazonxanide) it was 30.07% and 28.12% and 27.66%; in experiment [1] (compound at 3 x EC90, 24 h exposure, listed as Nitazonxanide) it was 13.35% and 18.43% and 17.09% and 15.85%; in experiment [1] (compound at 3 x EC90, 48 h exposure, listed as Nitazonxanide) it was 16.05% and 22.2% and 25.78% and 20.53%; in experiment [1] (compound at 3 x EC90, 72 h exposure) it was “Toxic”; in experiment [1] (compound at 6 x EC90, 0 h exposure, listed as Nitazonxanide), 26.94% and 25.13% and 23.57% and 25.93%. In addition, the “% Parasite / host nuclei” value in experiment [1] (compound at 6 x EC90, 6 h exposure, listed as Nitazonxanide) is 30.15% and 26.39% and 33.45% and 27.12%; in experiment [1] (compound at 6 x EC90, 24 h exposure, listed as Nitazonxanide), 10.66% and 16.54% and 13.19% and 15.55%; in experiment [1] (compound at 6 x EC90, 48 h exposure, listed as Nitazonxanide) it was 24.32% and 23.51% and 19.71% and 19.93%; in experiment [1] (compound at 6 x EC90, 72 h exposure), “Toxic”; in experiment [1] (compound at 9 x EC90, 0 h exposure, listed as Nitazonxanide) it was 26.94% and 25.13% and 23.57% and 25.93%; in experiment [1] (compound at 9 x EC90, 6 h exposure, listed as Nitazonxanide), 26.17% and 22.66% and 19.45% and 20.04%. Also, the “% Parasite / host nuclei” value in experiment [1] (compound at 9 x EC90, 24 h exposure, listed as Nitazonxanide) was 13.32% and 10.07% and 14.28% and 12.9%; in experiment [1] (compound at 9 x EC90, 48 h exposure, listed as Nitazonxanide), 23.17% and 21.12% and 20.67% and 21.26%; in experiment [1] (compound at 9 x EC90, 72 h exposure), “Toxic”; in experiment [1] (compound at 12 x EC90, 0 h exposure, listed as Nitazonxanide), 26.94% and 25.13% and 23.57% and 25.93%; in experiment [1] (compound at 12 x EC90, 24 h exposure, listed as Nitazonxanide) it was 12.84% and 10.89% and 15.16% and 10.85%; in experiment [1] (compound at 12 x EC90, 48 h exposure, listed as Nitazonxanide) it was 17.1% and 18.74% and 17.39% and 22.34%. For the same molecule, the “% Parasite / host nuclei” value is “Toxic” in experiment [1] (compound at 12 x EC90, 72 h exposure); 26.94% and 25.13% and 23.57% and 25.93% in experiment [1] (compound at EC50, 0 h exposure, listed as Nitazonxanide); 25.94% and 27.24% and 39.66% and 24.06% in experiment [1] (compound at EC50, 6 h exposure, listed as Nitazonxanide); 49.74% and 52.37% and 49.99% and 64.54% in experiment [1] (compound at EC50, 24 h exposure, listed as Nitazonxanide); 50.13% and 44.73% and 56.15% and 36.04% in experiment [1] (compound at EC50, 48 h exposure, listed as Nitazonxanide); 36.74% and 33.35% and 25.45% and 34.5% in experiment [1] (compound at EC50, 72 h exposure, listed as Nitazonxanide). The “% Parasite / host nuclei” value was 26.94% and 25.13% and 23.57% and 25.93% in experiment [1] (compound at EC90, 0 h exposure, listed as Nitazonxanide); 29.07% in experiment [1] (compound at EC90, 6 h exposure, listed as Nitazonxanide); 18.51% and 12.77% and 20.62% and 15.68% in experiment [1] (compound at EC90, 24 h exposure, listed as Nitazonxanide); 23.29% and 31.8% and 31.94% and 28.34% in experiment [1] (compound at EC90, 48 h exposure, listed as Nitazonxanide); 16.17% and 23.44% and 16.12% and 24.86% in experiment [1] (compound at EC90, 72 h exposure, listed as Nitazonxanide). Also, the half-maximal effective concentration (EC50) in the experiment with C. parvum (Cryptosporidium parvum, HCT-8, in Vicia villosa) is 1.19 µM; in the experiment on C. parvum, 2.09 µM and 1.75 µM.

`NC[C@@H]1O[C@H](O[C@H]2[C@@H](O)[C@H](O[C@@H]3[C@@H](O)[C@H](N)C[C@H](N)[C@H]3O[C@H]3O[C@H](CO)[C@@H](O)[C@H](O)[C@H]3N)O[C@@H]2CO)[C@H](N)[C@@H](O)[C@@H]1O` [Paromomycin, paromomycin, reference compound]: the “parasite fecal shedding (qPCR), individual mice” value in experiment [2] (D7 (before treatment)) was 801.749 oocysts/mg feces and 822.565 oocysts/mg feces and 435.223 oocysts/mg feces and 38.903 oocysts/mg feces; in experiment [2] (D11) it was 28.872 oocysts/mg feces and 141.665 oocysts/mg feces and 45.072 oocysts/mg feces and 47.829 oocysts/mg feces. Also, the “reduction of fecal parasite shedding” value in experiment [2] (paromomycin positive control, after 4 days of treatment, once daily oral) is on record as around 90%.

As for `O=C(Nc1ccc(Cl)cc1)N1CCN(c2ccc3nncn3n2)CC1` [MMV665917], the “potency against asexual vs sexual stage parasites” value in experiment [3] was “equal potency against asexual and sexual stage parasites”.

On to `CN(C)C[C@H](O)Cn1c2ccc(Br)cc2c2cc(Br)ccc21` (racemic) [Wiskostatin, wiskostatin], for which, in experiment [4], the “% Inhibition (normalized to DMSO control)” value was 92%. Also, the inhibition at 11.3 µM in experiment [4] (Cryptosporidium parvum, HCT-8, 3 h, read-out: % Inhibition (normalized to DMSO control)) was 90%.
